Measurements: patent publication US5587479A, “Basic derivatives of glutamic acid and aspartic acid as gastrin or cholecystokinin antagonists” (priority 1992, dated 1996)
In brackets after ≈: the same amount, converted by molar mass. Like-named read-outs stand apart in the source and are kept apart here.

Columns and labels:
[1] = tested on: acid secretion induced by pentagastrin; experiment: Activity against gastric secretion stimulated with pentagastrin in the anaesthetized rat; assay type: in vivo; details: for ED50: iv, anaesthetized rat, pentagastrin 30 mcg/kg/h, I.V. bolus, read-out: Antagonistic activity (ID50) towards acid secretion induced by pentagastrin
Protocol: The investigation of the activity against gastric secretion performed by the compounds of the invention by means of an antigastrin mechanism was carried out in vivo in anaesthetized rats with the use of male animals weighing about 200 g. Gastric secretion was stimulated with pentagastrin and the method of K. S. Lai [Gut 5, (1964), 327-341] was used, slightly modified.
After tracheotomy, the oesophagus and duodenum were cannulated. Perfusion was carried out with a tepid solution (37° C.) of 0.25 mM NaOH which was passed through the stomach by means of a peristaltic pump at a constant flow rate of 1 ml/minute. After stabilization for 20 minutes, the stimulant, dissolved in a physiological solution, was perfused for 120 minutes at a dose of 30 mcg/kg/h in a volume of 0.95 ml/hour. After perfusion for 60 minutes (the basal simulation), the product under test was administered intravenously (I.V.) as a bolus and the perfusion of the stimulant was continued for a further 60 minutes. The acid secretion was recorded continuously as a function of time.
The activity of the product was evaluated as the percentage reduction in the secreted acidity after the administration of the product compared with the basal acidity measured during the first 60 minutes of collection in the presence of pentagastrin alone.

guinea-pig ureters = experiment: Antispastic activity in vitro: spontaneous motility of guinea-pig ureters; details: for IC50: Cavia porcellus, five minutes contact, 37° C.
From the text: The isotonic contractions were detected by means of a force transducer and recorded. […] A given concentration of the product under test was then introduced into the bath and left in contact with the prepared specimen for five minutes, after which the ureter was washed until its own spontaneous activity was re-established.

[2] = target: T1, central CCK-B receptors (guinea pig cortical membrane) (Cavia porcellus, UniProt H0VZC5); experiment: Inhibition of binding of (3-H)[N-methyl-N-leucine]CCK-8 to guinea pig cortical membranes (anti-CCK-B)
T1 construct: Cerebral cortices of white male guinea pigs were therefore used; from tissue; host or cells: guinea pig cerebral cortex membranes
T1 sequence (H0VZC5 1-426): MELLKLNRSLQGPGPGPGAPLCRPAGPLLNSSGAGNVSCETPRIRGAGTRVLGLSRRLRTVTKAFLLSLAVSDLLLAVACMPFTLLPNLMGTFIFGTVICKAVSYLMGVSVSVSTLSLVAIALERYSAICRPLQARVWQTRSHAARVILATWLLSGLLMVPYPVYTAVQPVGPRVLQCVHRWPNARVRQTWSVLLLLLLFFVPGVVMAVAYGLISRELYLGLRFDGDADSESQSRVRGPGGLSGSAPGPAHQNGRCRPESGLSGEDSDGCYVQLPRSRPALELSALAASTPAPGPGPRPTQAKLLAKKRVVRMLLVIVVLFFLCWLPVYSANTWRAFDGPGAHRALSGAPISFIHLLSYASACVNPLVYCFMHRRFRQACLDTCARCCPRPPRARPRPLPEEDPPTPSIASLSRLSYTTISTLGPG
Protocol: Cerebral cortices of white male guinea pigs were therefore used, according to the method mentioned above, so as to obtain a membrane content/ml corresponding to about 300 mcg of proteins/mi. The membranes were incubated together with the radioactive tracer and the compounds under test for 150 minutes at 25° C. After the supernatant liquid had been discarded, the radioactivity associated with the pellet was determined with a liquid scintillator.

mouse = experiment: Anxiolytic activity in the mouse, Black and White Box test; assay type: in vivo; details: for TOTAL MOV.: five minutes
Protocol: In order to confirm the hypothesis that the potent activity of some of the compounds of the invention against central CCK-B may be correlated with a possible anxiolytic activity, this potential activity was evaluated in the mouse with the use of the "Black and White Box test". This experimental model, which was carried out according to Costall et al. [Pharm. Biochem. Behav. 32 (1989), 777-785] used a box with dimensions of 45×21×21 (h) cm. divided into two compartments which communicated with each other by means of a 13×5 cm hole. The smaller compartment (1/3 of the total area) had black walls, whereas the larger had transparent walls and was illuminated by a lamp which was placed 20 cm above the box and supplied light at 20 W. Under the floor was an activity meter which registered the movements performed by the animal in the individual compartments. The experiment was started by placing the animal in the centre of the illuminated box; as well at its movements, the time which the animal spent in the dark and in the light and the number of times it moved between the 2 compartments were recorded for five minutes. In general, a control animal tended preferably to stay in the dark compartment where it felt better protected from an unusual enviromental situation which put it in a state of anxiety. In this experimental model ( see the reference cited above), a compound having anxiolytic activity decreased the % of movements into the dark in comparison with the total movements, increased the movements between the two light-dark compartments, and increased the % of the total time time spent in the light. The results obtained are given in Table 5 below in which the activities obtained with the compound 1 (the rectus series ) and its enantiomer 2 (sinister) tested in comparison with diazepam and the CCK-B antagonist L365-260.

[3] = force of the contractions, read-out: IC50 (force), inhibition of the spontaneous motility of guinea-pig ureters in vitro
[4] = frequency of the contractions, read-out: IC50 (frequency), inhibition of the spontaneous motility of guinea-pig ureters in vitro
[5] = IC50, inhibition of binding of (3-H)[N-methyl-N-leucine]CCK-8 to the guinea pig cortical membrane, 150 minutes at 25° C.

CCCCCN(CCCCC)C(=O)C(CCC(=O)O)NC(=O)c1ccc(Cl)c(Cl)c1 (stereo not shown) [lorglumide, reference compound]
antigastrin activity (in words) ([1]; rat, up to a dose of 100 mg/kg): completely inactive

O=C(CC[C@@H](NC(=O)c1cc(Cl)cc(Cl)c1)C(=O)N1CCC2(CCCC2)CC1)NCCN1CCOCC1 [Compound 3]
ED50 [1]: 12.8 mg/kg
activity on guinea-pig ureters (in words) (guinea-pig ureters): extremely active
IC50 (guinea-pig ureters; [3]): 4.5 µg/mL (≈ 8.13 µM)
IC50 (guinea-pig ureters; [4]): 4.3 µg/mL (≈ 7.77 µM)
IC50 [2, 5]: 2800 nM

CN1CCN(C(=O)C[C@@H](NC(=O)c2cc(Cl)cc(Cl)c2)C(=O)N2CCC3(CCCC3)CC2)CC1 [Compound 70]
ED50 [1]: 18.9 mg/kg

CCCN(CCC)C(=O)C(CCC(=O)O)NC(=O)c1ccccc1 (stereo not shown) [proglumide, reference compound]
ED50 [1]: 500 mg/kg

CN1CCN(C(=O)CC[C@@H](NC(=O)c2cccc(Cl)c2)C(=O)NCCC(C)(C)C)CC1 [Compound 23]
ED50 [1]: 25 mg/kg
IC50 [2, 5]: > 100000 nM

CN1CCN(C(=O)CC[C@@H](NC(=O)c2cc(Cl)cc(Cl)c2)C(=O)N2CCC3(CCCCC3)CC2)CC1 [Compound 13]
ED50 [1]: 8.5 mg/kg

CN1CCN(C(=O)CC[C@H](NC(=O)c2cc(Cl)cc(Cl)c2)C(=O)N2CCC3(CCCC3)CC2)CC1 [Compound 2]
LIGHT TIME (%) TOTAL TIME (mouse; 0.1 mg/kg IP): 28.3%
LIGHT TIME (%) TOTAL TIME: % EFF.VS CONTROL (mouse; 0.1 mg/kg IP): 0%
LIGHT-DARK MOVEMENTS (mouse; 0.1 mg/kg IP): 13.2
LIGHT-DARK MOVEMENTS: % EFF. VS CONTROL (mouse; 0.1 mg/kg IP): 0%
MOV. DARK (%) TOTAL MOV. (mouse; 0.1 mg/kg IP): 50%
MOV. DARK (%) TOTAL MOV.: % EFF. VS CONTROL (mouse; 0.1 mg/kg IP): -4%
TOTAL MOV. (mouse; 0.1 mg/kg IP): 477
LIGHT TIME (%) TOTAL TIME (mouse; 1 mg/kg IP): 27.5%
LIGHT TIME (%) TOTAL TIME: % EFF.VS CONTROL (mouse; 1 mg/kg IP): 0%
LIGHT-DARK MOVEMENTS (mouse; 1 mg/kg IP): 12.8
LIGHT-DARK MOVEMENTS: % EFF. VS CONTROL (mouse; 1 mg/kg IP): 0%
MOV. DARK (%) TOTAL MOV. (mouse; 1 mg/kg IP): 50%
MOV. DARK (%) TOTAL MOV.: % EFF. VS CONTROL (mouse; 1 mg/kg IP): -4%
TOTAL MOV. (mouse; 1 mg/kg IP): 462
anxiolytic activity in the Black and White Box test (in words) (mouse; IP): completely inactive
ED50 [1]: 24.8 mg/kg
IC50 (guinea-pig ureters; [3]): 25 µg/mL (≈ 47.8 µM)
IC50 (guinea-pig ureters; [4]): 20 µg/mL (≈ 38.2 µM)
IC50 [2, 5]: > 100000 nM
IC50 ([2]; read-out: IC50, binding to guinea-pig cortical membranes): > 1000 nM
